Columns and labels:
Salmonella enteritidis = assay: Short-term pathogen challenge test, Salmonella enteritidis; format: cell-based; conditions: positive control, 125 ppm; 48 h colonic incubation
[1] = test system: adherent-invasive E. coli (AIEC); assay: Short-term pathogen challenge test, AIEC; format: cell-based, Escherichia coli; conditions: positive control, 125 ppm; 48 h colonic incubation

## O=C(O)c1cn(C2CC2)c2cc(N3CCNCC3)c(F)cc2c1=O [ciprofloxacin]
Salmonella enteritidis
  abundance of Salmonella enteritidis: strongly decreased abundance of Salmonella enteritidis
[1]
  abundance of AIEC: decreased abundance of AIEC
